Publication PMC8224453, “A New PqsR Inverse Agonist Potentiates Tobramycin Efficacy to Eradicate Pseudomonas aeruginosa Biofilms” (Advanced Science, 2021)
Read-outs that look alike come from different tables or passages of the source.

Legend:
[1] = test system: PA14 wt biofilm; test: Minimum biofilm eradicating concentration (MBEC) assay; format: cell-based, Pseudomonas aeruginosa
From the text: page 21: wild type (PA14 wt) was purchased from DSMZ, the German Collection of Microorganism and Cell Cultures GmbH (PA14 = DSMZ19882) and cultured in minimal proteose peptone glucose ammonium salt (PPGAS) medium. […] KCl, 19 g/L Tris-HCl, 10 g/L peptone, 5 g/L glucose and 0.1 g/L MgSO4∙7H2O. The pH value […] Agar solution was […] resulting solution was sterilized before being plated. The minimum inhibitory concentration (IC) of drug-free SqNPs, compound 4 prepared either in dimethyl sulfoxide (DMSO) or loaded in SqNPs, free Tob, Tob-loaded SqNPs, and Tob and compound 4 co-loaded SqNPs against planktonic PA14 wt were determined by standard microbroth dilution assays in 96-well plates. PA14 wt suspension was prepared from mid-log cultures in PPGAS medium and […] PBS served as a control. […] The MBECs of free Tob, Tob-loaded SqNPs, free Tob plus free compound 4 prepared in DMSO, and Tob and compound (4) co-loaded SqNPs were determined by the MBEC assay as reported in previous study.[2,7] […] The biofilm-eradicating efficacy was assessed according to viable bacterial load determined using dilution in PBS/0.05% Tween20 and plating on agar S20 page 22: plates to count CFU after overnight incubation at […]. […] Using GraphPad Prism 8.4.2, the AUC was calculated for each condition. […] After a 24h treatment, efficacy was assessed by determination of colony-forming units per millilitre (CFU/mL). […]

[2] = test system: alkylquinolones PQS and HHQ in P. aeruginosa PA14; test: Alkylquinolone inhibition assay in PA14; format: cell-based; settings: Pseudomonas aeruginosa
Method: 4. Secondary Activity Assays
4.1. Alkylquinolone Inhibition Assay
The inhibitory effect of the synthesized compounds on alkylquinolone production in PA was measured as previously described with the modification that wt PA14 was used instead of PA14pqsH.[6] Briefly, P. aeruginosa PA14 cultures were grown in the presence of DMSO as a control or DMSO solutions of inhibitors for 17 h. HHQ and PQS as well as HQNO were quantified from ethyl acetate extracts using 5,6,7,8-tetradeutero-2-heptyl-4(1H)-quinolone (HHQ-d4) as internal standard (IS). LC-ESI-MS/MS analysis was performed on a Dionex […]
(1 picture or pasted object on this page, not shown here)
Scientific, Waltham MA) with the following conditions: Zorbax Eclipse XDB 80 Å C18 5 µm 4.6 x 50 mm column (Agilent, Santa Clara, CA, USA); eluent A – H2O with 0.1% trifluoroacetic acid (TFA), 0.1% pentafluoropropionic acid (PFPA), 0.1% heptafluorobutyric acid (HFBA); eluent B – acetonitrile with 0.1% TFA, 0.1% PFPA, 0.1% HFBA; isocratic 50% A; flow – 0.7 mL/min. TSQ Quantum Access Max (Thermo Fisher Scientific, Waltham, MA, USA) instrument parameters: Spray voltage 3500 V, vaporizer temperature 370 °C, sheath gas pressure 35 psi, aux gas pressure 30 psi, capillary temperature 270 °C, collision pressure 1.5 mTorr, positive ionization mode. For AQ analyte reaction monitoring parameters […]
Data acquisition and quantification was performed using Xcalibur software with the use of a calibration curve relative to the area of the IS. IC50 values were calculated according to the procedure of the pyocyanin assay (see above).
Table S1: LC-ESI-MS/MS reaction monitoring parameters of AQ analytes in positive ionization mode. precursor product collision tube lens retention ion m/z ion m/z energy (V) offset (V) time (min)
Chemical and biological materials for in vitro assays: All chemicals were purchased from Sigma-Aldrich unless otherwise specified. Yeast extract was obtained from Fluka. Bacto™ Tryptone were obtained from BD Biosciences. Luria Bertani (LB) agar was obtained from Carl Roth. Gibco® PBS was obtained from Life Te chnologies. Purified water was prepared by a Milli-Q water purification system (Merk Millipore, Billerica, MA). The PA strain PA14 wild type (PA14 wt) was purchased from DSMZ, the German Collection of Microorganism and Cell Cultures GmbH (PA14 = DSMZ19882) and cultured in minimal proteose peptone glucose ammonium salt (PPGAS) medium. PPGAS was composed of 1 g/L NH4Cl, 1.5 g/L KCl, 19 g/L Tris-HCl, 10 g/L peptone, 5 g/L glucose and 0.1 g/L MgSO4∙7H2O. The pH value of the medium was adjusted to 7.2 ± 0.2 and sterilized before use. Agar solution was […]

Row | SMILES | MBEC (Tob concentration for complete biofilm eradication) ([1]; PA14 wt biofilm, 24 h treatment, 4 constant at 20 × 10^−6 M where used) | IC50 ([2]; PA14, read-out: IC50(HHQ)) | IC50 ([2]; PA14, read-out: IC50(PQS)) | PA14 wt biofilm inhibitory effect ([1]; controls of the MBEC assay, compound 4 at 20 μM)
1 | NC[C@H]1O[C@H](O[C@H]2[C@H](O)[C@@H](O[C@H]3O[C@H](CO)[C@@H](O)[C@H](N)[C@H]3O)[C@H](N)C[C@@H]2N)[C@H](N)C[C@@H]1O [Tobramycin, tobramycin] | higher than 200 µg mL^−1 | – | – | –
2 | COc1ccc(-n2cc(CNc3ccnc(C(F)(F)F)c3)nn2)cc1Cl [Compound 17] | – | 1.32 ± 0.39 µM | 2.08 ± 0.37 µM | –
3 | FC(F)(F)c1cc(NCc2cn(-c3ccc(Oc4ccccc4)cc3)nn2)ccn1 [Compound 4] | – | 0.37 ± 0.07 µM | 1.13 µM | did not show any PA14 wt biofilm inhibitory effects
